The target of this assay is PA1221 (Pseudomonas aeruginosa, UniProt Q9I4B7). The experiment in a line: […]-PPi exchange assay. It is filed as biochemical. The settings on record: 2 mM ATP, 0.2 mM PPi, 1 mM MgCl2, pH 7.5, 37 °C.

For `CC[C@H](C)[C@H](N)C(=O)O` [I, Ile], where the note is “5 mM Ile”, the 32P-PPi exchange assay entry is “Ile, Leu, and Ala utilized as substrates at a lower rate”.
As for `CC(C)[C@H](N)C(=O)O` [V, valine], under “5 mM valine”, the 32P-PPi exchange assay result is “Valine resulted in the highest activity”.

The values above are taken from article PMC3332334 (Biochemistry, 2012).
